Experimental data from patent US9718792B2, “Isoxazoline hydroxamic acid derivatives as LpxC inhibitors” (priority 2014, dated 2017).
Converted amounts (≈) assume the structure as drawn. Where two headings read alike, the source gives them in different places.

Experiments:
[1] = target: P. aeruginosa LpxC (Pseudomonas aeruginosa (strain ATCC 15692 / DSM 22644 / CIP 104116 / JCM 14847 / LMG 12228 / 1C / PRS 101 / PAO1), UniProt P47205); assay: P. aeruginosa LpxC Inhibition Assay; format: biochemical; conditions: 2 μM substrate, LC-MS/MS
Outline: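 Compounds pre-incubated 30 min at room temperature with 1 nM LpxC, then 2 μM UDP-3-O-(R-3-hydroxydecanoyl)-GlcNAc added; 20 min reaction in 50 mM sodium phosphate pH 7.5, 0.005% Triton X-100, quenched with HOAc. Product quantified by LC-MS/MS against calibration curve; IC50 from four-parameter logistic fit.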

[2] = test system: P. aeruginosa PAO1; assay: Susceptibility Testing (MIC, broth microdilution); format: cell-based, Pseudomonas aeruginosa; conditions: Pseudomonas aeruginosa, PAO1, 20 h, P. aeruginosa PAO1, broth microdilution, 20 hours; read-out: PAO1 MIC
Outline: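 Broth microdilution per CLSI in cation-adjusted Mueller-Hinton broth, inoculum ~5×10^5 CFU/mL, two-fold compound dilutions (1% DMSO final). Plates incubated 20 h in ambient air at 35° C. MIC is the lowest concentration preventing visible growth, confirmed by OD 600 nm reading.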

[3] = 1 nM P. aeruginosa LpxC, read-out: PA LpxC IC50

SMILES: Cc1cnccc1-c1ccc(C2=NO[C@@H](C[C@](C)(C(=O)NO)S(C)(=O)=O)C2)cc1 [Compound 85, (R)-3-((R)-3-(4-(3-methylpyridin-4-yl)phenyl)-4,5-dihydroisoxazol-5-yl)-N-hydroxy-2-methyl-2-(methylsulfonyl)propanamide]
- IC50 [1, 3]: < 0.5 nM
- MIC [2]: 0.5 µg/mL (≈ 1.2 µM)

SMILES: CO[C@@H](CO)Cc1ccc(-c2ccc(C3=NO[C@@H](C[C@](C)(C(=O)NO)S(C)(=O)=O)C3)cc2)cc1 [Compound 86, (R)—N-hydroxy-3-((R)-3-(4′-((R)-3-hydroxy-2-methoxypropyl)-[1,1′-biphenyl]-4-yl)-4,5-dihydroisoxazol-5-yl)-2-methyl-2-(methylsulfonyl)propanamide]
- IC50 [1, 3]: < 0.5 nM
- MIC [2]: 0.35 µg/mL (≈ 0.713 µM)

SMILES: Cc1cc(CO)ccc1-c1ccc(C2=NO[C@@H](C[C@](C)(C(=O)NO)S(C)(=O)=O)C2)cc1 [Compound 87, (R)—N-hydroxy-3-((R)-3-(4′-(hydroxymethyl)-2′-methyl-[1,1′-biphenyl]-4-yl)-4,5-dihydroisoxazol-5-yl)-2-methyl-2-(methylsulfonyl)propanamide]
- IC50 [1, 3]: < 0.5 nM
- MIC [2]: 0.25 µg/mL (≈ 0.56 µM)

SMILES: C[C@@H](O)Cc1cc(F)c(-c2ccc(C3=NO[C@@H](C[C@](C)(C(=O)NO)S(C)(=O)=O)C3)cc2)c(F)c1 [Compound 88, (R)-3-((R)-3-(2′,6′-difluoro-4′-((R)-2-hydroxypropyl)-[1,1′-biphenyl]-4-yl)-4,5-dihydroisoxazol-5-yl)-N-hydroxy-2-methyl-2-(methylsulfonyl) propanamide]
- IC50 [1, 3]: < 0.5 nM
- MIC [2]: 0.25 µg/mL (≈ 0.503 µM)

SMILES: C[C@@H](O)Cc1ccc(-c2ccc(C3=NO[C@@H](C[C@](C)(C(=O)NO)S(C)(=O)=O)C3)cc2)c(F)c1 [Compound 89, (R)-3-((R)-3-(2′-fluoro-4′-((R)-2-hydroxypropyl)-[1,1′-biphenyl]-4-yl)-4,5-dihydroisoxazol-5-yl)-N-hydroxy-2-methyl-2-(methylsulfonyl) propanamide]
- IC50 [1, 3]: < 0.5 nM
- MIC [2]: 0.71 µg/mL (≈ 1.48 µM)

SMILES: Cc1cc(C[C@@H](C)O)ccc1-c1ccc(C2=NO[C@@H](C[C@](C)(C(=O)NO)S(C)(=O)=O)C2)cc1 [Compound 90, (R)-3-((R)-3-(2′-methyl-4′-((R)-2-hydroxypropyl)-[1,1′-biphenyl]-4-yl)-4,5-dihydroisoxazol-5-yl)-N-hydroxy-2-methyl-2-(methylsulfonyl) propanamide]
- IC50 [1, 3]: < 0.5 nM
- MIC [2]: 0.5 µg/mL (≈ 1.05 µM)

SMILES: C[C@@](C[C@H]1CC(c2ccc(-c3ccsc3)cc2)=NO1)(C(=O)NO)S(C)(=O)=O [Compound 91, (R)—N-hydroxy-2-methyl-2-(methylsulfonyl)-3-((R)-3-(4-(thiophen-3-yl)phenyl)-4,5-dihydroisoxazol-5-yl)propanamide]
- IC50 [1, 3]: < 0.5 nM
- MIC [2]: 0.125 µg/mL (≈ 0.306 µM)

SMILES: C[C@@](C[C@H]1CC(c2ccc(-c3cnsc3)cc2)=NO1)(C(=O)NO)S(C)(=O)=O [Compound 92, (R)—N-hydroxy-3-((R)-3-(4-(isothiazol-4-yl)phenyl)-4,5-dihydroisoxazol-5-yl)-2-methyl-2-(methylsulfonyl)propanamide]
- IC50 [1, 3]: < 0.5 nM
- MIC [2]: 0.35 µg/mL (≈ 0.855 µM)

SMILES: C[C@@H](O)[C@@H](O)Cc1ccc(-c2ccc(C3=NO[C@@H](C[C@](C)(C(=O)NO)S(C)(=O)=O)C3)cc2)cc1 [Compound 93, (R)-3-((R)-3-(4′-((2S,3R)-2,3-dihydroxybutyl)-[1,1′-biphenyl]-4-yl)-4,5-dihydroisoxazol-5-yl)-N-hydroxy-2-methyl-2-(methylsulfonyl) propanamide]
- IC50 [1, 3]: < 0.5 nM
- MIC [2]: 2 µg/mL (≈ 4.08 µM)

SMILES: C[C@@](C[C@H]1CC(c2ccc(-c3ccc([C@H](O)CO)cc3)cc2)=NO1)(C(=O)NO)S(C)(=O)=O [Compound 94, (R)-3-((R)-3-(4′-((S)-1,2-dihydroxyethyl)-[1,1′-biphenyl]-4-yl)-4,5-dihydroisoxazol-5-yl)-N-hydroxy-2-methyl-2-(methylsulfonyl)propanamide]
- IC50 [1, 3]: < 0.5 nM
- MIC [2]: 0.25 µg/mL (≈ 0.541 µM)

SMILES: C[C@@](C[C@H]1CC(c2ccc(-c3ccc([C@@H](O)CO)cc3)cc2)=NO1)(C(=O)NO)S(C)(=O)=O [Compound 95, (R)-3-((R)-3-(4′-((R)-1,2-dihydroxyethyl)-[1,1′-biphenyl]-4-yl)-4,5-dihydroisoxazol-5-yl)-N-hydroxy-2-methyl-2-(methylsulfonyl)propanamide]
- IC50 [1, 3]: < 0.1 nM
- MIC [2]: 0.25 µg/mL (≈ 0.541 µM)

SMILES: C[C@@](C[C@H]1CC(c2ccc(-c3ccc(C(O)CCO)cc3)cc2)=NO1)(C(=O)NO)S(C)(=O)=O (stereo partly drawn) [Compound 96, (2R)-3-((5R)-3-(4′-(1,3-dihydroxypropyl)-[1,1′-biphenyl]-4-yl)-4,5-dihydroisoxazol-5-yl)-N-hydroxy-2-methyl-2-(methylsulfonyl)propanamide]
- IC50 [1, 3]: < 0.5 nM
- MIC [2]: 0.5 µg/mL (≈ 1.05 µM)

SMILES: C[C@@](C[C@H]1CC(c2ccc(C#CC3CCOCC3)cc2)=NO1)(C(=O)NO)S(C)(=O)=O [Compound 98, (R)—N-hydroxy-2-methyl-2-(methylsulfonyl)-3-((R)-3-(4-((tetrahydro-2H-pyran-4-yl)ethynyl)phenyl)-4,5-dihydroisoxazol-5-yl)propanamide]
- IC50 [1, 3]: 0.6 nM
- MIC [2]: 2 µg/mL (≈ 4.6 µM)

SMILES: C[C@@](C[C@H]1CC(c2ccc(-c3c(F)cncc3F)cc2)=NO1)(C(=O)NO)S(C)(=O)=O [Compound 100]
- IC50 [1, 3]: < 0.5 nM
- MIC [2]: 0.25 µg/mL (≈ 0.569 µM)

SMILES: CCc1ccc(C2=NO[C@@H](C[C@](C)(C(=O)NO)S(C)(=O)=O)C2)cc1F [Compound 101, (R)-3-((R)-3-(4-ethyl-3-fluorophenyl)-4,5-dihydroisoxazol-5-yl)-N-hydroxy-2-methyl-2-(methylsulfonyl)propanamide]
- IC50 [1, 3]: < 0.5 nM
- MIC [2]: 0.35 µg/mL (≈ 0.94 µM)

SMILES: C[C@@](C[C@H]1CC(c2ccc(-c3ccc(CCO)cc3)c(F)c2)=NO1)(C(=O)NO)S(C)(=O)=O [Compound 102, (R)-3-((R)-3-(2-fluoro-4′-(2-hydroxyethyl)-[1,1′-biphenyl]-4-yl)-4,5-dihydroisoxazol-5-yl)-N-hydroxy-2-methyl-2-(methylsulfonyl)]
- IC50 [1, 3]: < 0.5 nM
- MIC [2]: 0.18 µg/mL (≈ 0.388 µM)

SMILES: C[C@@](C[C@H]1CC(c2ccc(-c3ccc(CO)cc3)c(F)c2)=NO1)(C(=O)NO)S(C)(=O)=O [Compound 103, (R)-3-((R)-3-(2-fluoro-4′-(hydroxymethyl)-[1,1′-biphenyl]-4-yl)-4,5-dihydroisoxazol-5-yl)-N-hydroxy-2-methyl-2-(methylsulfonyl)propanamide]
- IC50 [1, 3]: 0.6 nM
- MIC [2]: 0.18 µg/mL (≈ 0.4 µM)

SMILES: C[C@@](C[C@H]1CC(c2ccc(-c3ccc(CC#N)cc3)c(F)c2)=NO1)(C(=O)NO)S(C)(=O)=O [Compound 104, (R)-3-((R)-3-(4′-(cyanomethyl)-2-fluoro-[1,1′-biphenyl]-4-yl)-4,5-dihydroisoxazol-5-yl)-N-hydroxy-2-methyl-2-(methylsulfonyl)propanamide]
- IC50 [1, 3]: 0.5 nM
- MIC [2]: 0.125 µg/mL (≈ 0.272 µM)

SMILES: Cn1ccc(-c2ccc(C3=NO[C@@H](C[C@](C)(C(=O)NO)S(C)(=O)=O)C3)cc2F)cc1=O [Compound 108, (R)-3-((R)-3-(3-fluoro-4-(1-methyl-2-oxo-1,2-dihydropyridin-4-yl)phenyl)-4,5-dihydroisoxazol-5-yl)-N-hydroxy-2-methyl-2-(methylsulfonyl)propanamide]
- IC50 ([1]; PA LpxC IC50, 1 nM P. aeruginosa LpxC): 2 nM
- MIC [2]: 8 µg/mL (≈ 17.7 µM)

SMILES: CC(C)(O)c1ccc(-c2ccc(C3=NO[C@@H](C[C@](C)(C(=O)NO)S(C)(=O)=O)C3)cc2F)cc1 [Compound 110, (R)-3-((R)-3-(2-fluoro-4′-(2-hydroxypropan-2-yl)-[1,1′-biphenyl]-4-yl)-4,5-dihydroisoxazol-5-yl)-N-hydroxy-2-methyl-2-(methylsulfonyl)propanamide]
- IC50 [1, 3]: < 0.5 nM
- MIC [2]: 0.5 µg/mL (≈ 1.04 µM)

SMILES: C[C@@](C[C@H]1CC(c2ccc(-c3ccncc3C(F)(F)F)cc2)=NO1)(C(=O)NO)S(C)(=O)=O [Compound 111, (R)—N-hydroxy-2-methyl-2-(methylsulfonyl)-3-((R)-3-(4-(3-(trifluoromethyl)pyridin-4-yl)phenyl)-4,5-dihydroisoxazol-5-yl)propanamide]
- IC50 [1, 3]: < 0.5 nM
- MIC [2]: 1 µg/mL (≈ 2.12 µM)

SMILES: CC(C)c1cc(-c2ccc(C3=NO[C@@H](C[C@](C)(C(=O)NO)S(C)(=O)=O)C3)cc2F)ccn1 [Compound 112, (R)-3-((R)-3-(3-fluoro-4-(2-isopropylpyridin-4-yl)phenyl)-4,5-dihydroisoxazol-5-yl)-N-hydroxy-2-methyl-2-(methylsulfonyl)propanamide]
- IC50 [1, 3]: < 0.5 nM
- MIC [2]: 1 µg/mL (≈ 2.16 µM)

SMILES: COc1ccc(-c2ccc(C3=NO[C@@H](C[C@](C)(C(=O)NO)S(C)(=O)=O)C3)cc2F)c(C)c1 [Compound 113, (R)-3-((R)-3-(2-fluoro-4′-methoxy-2′-methyl-[1,1′-biphenyl]-4-yl)-4,5-dihydroisoxazol-5-yl)-N-hydroxy-2-methyl-2-(methylsulfonyl)propanamide]
- IC50 [1, 3]: < 0.5 nM
- MIC [2]: 0.71 µg/mL (≈ 1.53 µM)

SMILES: C[C@@](C[C@H]1CC(c2ccc(-c3ccc(-c4nn[nH]n4)cc3)c(F)c2)=NO1)(C(=O)NO)S(C)(=O)=O [Compound 114, (R)-3-((R)-3-(2-fluoro-4′-(2H-tetrazol-5-yl)-[1,1′-biphenyl]-4-yl)-4,5-dihydroisoxazol-5-yl)-N-hydroxy-2-methyl-2-(methylsulfonyl)propanamide]
- IC50 [1, 3]: < 0.5 nM
- MIC [2]: 32 µg/mL (≈ 65.5 µM)

SMILES: C[C@@H](O)Cc1ccc(-c2ccc(C3=NO[C@@H](C[C@](C)(C(=O)NO)S(C)(=O)=O)C3)cc2F)c(F)c1 [Compound 115, (R)-3-((R)-3-(2,2′-difluoro-4′-((R)-2-hydroxypropyl)-[1,1′-biphenyl]-4-yl)-4,5-dihydroisoxazol-5-yl)-N-hydroxy-2-methyl-2-(methylsulfonyl)propanamide]
- IC50 [1, 3]: < 0.5 nM
- MIC [2]: 1 µg/mL (≈ 2.01 µM)
